Results on 30 compounds are retold here after publication PMC8187479, “Sugar phosphate activation of the stress sensor eIF2B” (Nature Communications, 2021).

For this experiment, the target named is T1, eIF2Bα (Homo sapiens, UniProt Q14232).
T1 construct: made in house; host or cells: E. coli BL21(DE3)
T1 sequence (Q14232 1-305): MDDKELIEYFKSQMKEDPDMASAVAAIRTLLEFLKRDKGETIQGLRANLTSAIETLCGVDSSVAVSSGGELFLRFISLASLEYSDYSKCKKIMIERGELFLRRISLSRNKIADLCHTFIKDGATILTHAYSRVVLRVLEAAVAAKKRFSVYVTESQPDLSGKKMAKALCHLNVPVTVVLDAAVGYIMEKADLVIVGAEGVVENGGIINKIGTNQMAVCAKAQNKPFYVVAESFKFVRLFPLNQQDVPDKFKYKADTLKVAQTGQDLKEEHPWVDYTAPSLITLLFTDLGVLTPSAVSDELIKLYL
Nature of the experiment: MIDAS (mass spectrometry integrated with equilibrium dialysis) metabolite binding screen. Summed up: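 Hits called at Storey q < 0.1 on z-scores of PCA-corrected log2 fold change between protein and metabolite chambers, quantified by FIA-MS in triplicate.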

Where [1] appears, read: MIDAS metabolite binding screen with eIF2Bα, sheet "eIF2Ba".
The mark [2] stands for this setting: MIDAS screen, sheet eIF2Ba, metabolites screened in pools 1-4, p-value and q-value given.

In the case of `Cc1ncc(COP(=O)(O)O)c(CN)c1O` [Pyridoxamine-5-phosphate], the “log2(corrected fold change)” value under setting [1] is -0.03281. Same read-out and setting: to `NCCCC(=O)O` [4-Aminobutanoate] belongs 0.0213. Take `NCCc1c[nH]cn1` [Histamine]: the “log2(corrected fold change)” value under setting [2] was 0.1325. Same read-out and setting: to `CSCC[C@H](N)C(=O)O` [L-Methionine] belongs 0.06465. `Nc1ccn([C@@H]2O[C@H](COP(=O)(O)OP(=O)(O)OP(=O)(O)O)[C@@H](O)[C@H]2O)c(=O)n1` [Cytidine 5-triphosphate]: the “log2(corrected fold change)” value under setting [1] came out at 0.04784. Consider `O=C(O)c1cccnc1` [Nicotinic acid], for which the “log2(corrected fold change)” value under setting [2] is on record as -0.1307. On the same count and under the same terms, as for `O=C(O)c1cccnc1C(=O)O` [2,3-Pyridinedicarboxylic acid], the figure is 0.05596. As to `CCCCCC(=O)NCC(=O)O` [N-Hexanoyl-glycine], the “log2(corrected fold change)” value under setting [1] is -0.05912. Take `CCC(=O)C(=O)O` [2-Ketobutyric acid]: the “log2(corrected fold change)” value under setting [2] is -0.05529.

Regarding `Nc1nc(=O)c2c([nH]1)NC[C@@H](CNc1ccc(C(=O)N[C@@H](CCC(=O)O)C(=O)O)cc1)N2C=O` [Folinic acid], the “log2(corrected fold change)” value under setting [2] came to 0.129.

On to `OC[C@@H](O)[C@H](O)[C@@H](O)CO` [Xylitol], for which the “log2(corrected fold change)” value under setting [2] is given as -0.08707. On the same count and under the same terms, to `CC(=O)NCCc1c[nH]c2ccc(O)cc12` [N-Acetyl-5-hydroxytryptamine] belongs 0.03423. In the case of `OC[C@@H](O)[C@@H](O)[C@@H](O)CO` [Adonitol], the “log2(corrected fold change)” value under setting [1] stood at 0.006339. On to `O=C1CC[C@H](C(=O)O)N1` [D-Pyroglutamic Acid], for which the “log2(corrected fold change)” value under setting [2] is -0.09309. Regarding Phosphatidylglycerol, the “log2(corrected fold change)” value under setting [2] turned out to be 0.1451. In the case of `Nc1nc2c(ncn2[C@@H]2O[C@H](COP(=O)(O)OP(=O)(O)O)[C@@H](O)[C@H]2O)c(=O)[nH]1` [Guanosine 5-diphosphate], the “log2(corrected fold change)” value under setting [1] was -0.07145. For `O=C(O)C=Cc1c[nH]cn1` [4-Imidazoleacrylic acid], the “log2(corrected fold change)” value under setting [2] is recorded as -0.125. In the case of `C[n+]1cccc(C(N)=O)c1` [1-Methylnicotinamide], under setting [1], the “log2(corrected fold change)” value is 0.02855. Same read-out and setting: to `OC[C@H]1O[C@H](O[C@H]2[C@H](O)[C@@H](O)[C@H](O)O[C@@H]2CO)[C@H](O)[C@@H](O)[C@@H]1O` [D-Maltose] belongs -0.003614; to `OC[C@H]1OC(O)[C@H](O)[C@@H](O)[C@@H]1O` (stereo partly drawn) [D-Glucose], -0.01874; to `CCCCCCCCCC(=O)O` [Decanoic acid], 0.004891. With `NC(=O)c1ccc[n+](C2OC(COP(=O)(O)OP(=O)(O)OCC3OC(n4cnc5c(=O)[nH]cnc54)C(O)C3O)C(O)C2O)c1` (stereo not drawn) [Nicotinamide hypoxanthine dinucleotide], the “log2(corrected fold change)” value under setting [2] came to 0.06307. Consider `O=C1CCNC(=O)N1` [Dihydrouracil], for which the “log2(corrected fold change)” value under setting [2] is given as -0.08721. With `O=C1O[C@H](CO)[C@@H](O)[C@H](O)[C@H]1O` [Glucono delta-lactone], the “log2(corrected fold change)” value under setting [1] is given as 0.01629. On to `N[C@@H](Cc1ccc(O)c(I)c1)C(=O)O` [3-Iodo-L-tyrosine], for which, under setting [2], the “log2(corrected fold change)” value stood at 0.6259.

Turning to `Cc1ncc(C[n+]2csc(CCOP(=O)(O)O)c2C)c(N)n1` [Thiamine monophosphate], the “log2(corrected fold change)” value under setting [2] is 0.1425.

In the case of `C[N+](C)(C)CC(=O)O` [Betaine], under setting [2], the “log2(corrected fold change)” value is 0.2268.

`NCCc1ccccc1` [Phenethylamine]: the “log2(corrected fold change)” value under setting [1] is -0.07261.

Consider `O=C1O[C@H]([C@@H](O)CO)[C@H](O)[C@@H]1O` [L-Gulonic acid gamma-lactone], for which the “log2(corrected fold change)” value under setting [1] came out at 0.02733. On to `OC[C@H]1O[C@H](OC[C@H]2O[C@H](O[C@]3(CO)O[C@H](CO)[C@@H](O)[C@@H]3O)[C@H](O)[C@@H](O)[C@@H]2O)[C@H](O)[C@@H](O)[C@H]1O` [D-Raffinose], for which the “log2(corrected fold change)” value under setting [1] is -0.02977.
